Measurements: patent US7618990B2, “Oxazolidone derivatives as PR modulators” (Wyeth, priority 2006, dated 2009)

Experiments:
[1] = tested on: alkaline phosphatase activity in T47D cells; test: Effects of progestins and antiprogestins on alkaline phosphatase activity in T47D cells (antagonist mode); assay type: cell-based; conditions: Homo sapiens, in the presence of 1 nM progesterone, read-out: T47D Alkaline Phosphatase Activity IC50 (nM) or % inhibition; for IC50: 24 h; for inhibition at 3 µM: % inhibition at 3000 nM
Experimental: (1) Effects of Progestins and Antiprogestins on Alkaline Phosphatase Activity in T47D Cells
PURPOSE: To identify progestins or antiprogestins by determining a compound's effect on alkaline phosphatase activity in T47D cells.
Culture Medium: • DMEM:F12 (1:1) (GIBCO, BRL) supplemented with 5% (v/v) charcoal stripped fetal bovine serum (not heat-inactivated), 100 U/mL penicillin, 100 μg/mL streptomycin, and 2 mM the GlutaMax™ reagent (GIBCO, BRL).
Alkaline Phosphatase Assay Buffer: • I. 0.1M Tris-HCl, pH 9.8, containing 0.2% the Triton® X-100 reagent • II. 0.1M Tris-HCl, pH 9.8, containing 4 mM p-nitrophenyl phosphate (Sigma). B. Cell Culture and Treatment:
Frozen T47D cells were thawed in a 37° C. water bath and diluted to 280,000 cells/mL in culture medium. To each well in a 96-well plate (Falcon, Becton Dickinson Labware), 180 μL of diluted cell suspension was added.
Twenty μL of reference or test compounds diluted in the culture medium was then added to each well. When testing for progestin antagonist activity, reference antiprogestins or test compounds were added in the presence of 1 nM progesterone. The cells were incubated at 37° C. in a 5% CO2/humidified atmosphere for 24 h.
NOTE: For high throughput screening, one concentration of each compound was tested at 0.3 μg/mL. Based on an average molecular weight of 300 g/mol for the compounds in the library, the concentration was approximately 1 μM. Subsequently, active compounds were tested in dose response assays to determine EC50 and IC50. C. Alkaline Phosphatase Enzyme Assay:
At the end of treatment, the medium was removed from the plate. Fifty μL of assay buffer I was added to each well. The plates were shaken in a titer plate shaker for 15 min. Then 150 μL of assay buffer II was added to each well. Optical density measurements were taken at 5 min intervals for 30 min at a test wavelength of 405 nm.
For reference and test compounds, a dose response curve was generated for dose (X-axis) vs. the rate of enzyme reaction (slope) (Y-axis). Square root-transformed data was used for analysis of variance and nonlinear dose response curve fitting for both agonist and antagonist modes. Huber weighting was used to down-weight the effects of outliers. EC50 or IC50 values were calculated from the retransformed values. JMP software (SAS Institute, Inc.) was used for both one-way analysis of variance and non-linear dose response analysis in both single dose and dose response studies.
Progesterone and trimegestone were reference progestins and RU486 was the reference antiprogestin. All reference compounds were run in full dose response curves and the EC50 and IC50 values were calculated.

| SMILES | melting point [°C] | IC50 [1] [nM] | inhibition at 3 µM [1] [%] | inhibition at 0.003 µM ([1]; % inhibition at 3 nM) [%] |
| --- | --- | --- | --- | --- |
| CCC[C@@H]1COC(=O)N1c1nc(-c2ccc(Br)cc2)cs1 [Example 20, (4R)-3-[4-(4-Bromophenyl)-1,3-thiazol-2-yl]-4-propyl-1,3-oxazolidin-2-one] | 114 to 116 | 70.2 |  |  |
| CCC[C@@H]1COC(=O)N1c1nc(-c2ccc(C#N)cc2)cs1 [Example 21, 4-{2-[(4R)-2-oxo-4-propyl-1,3-oxazolidin-3-yl]-1,3-thiazol-4-yl}benzonitrile] | 131 to 133 | 22.5 |  |  |
| CCC[C@H]1COC(=O)N1c1nc(-c2ccc(Br)cc2)cs1 [Example 22, (4S)-3-[4-(4-Bromophenyl)-1,3-thiazol-2-yl]-4-propyl-1,3-oxazolidin-2-one] | 116 to 118 | 64.3 |  |  |
| O=C1OCC2(CC2)N1c1nc(-c2ccc(Br)cc2)cs1 [Example 24, 4-[4-(4-Bromophenyl)-1,3-thiazol-2-yl]-6-oxa-4-azaspiro[2.4]heptane-5-one] | 201 to 202 | 292 |  |  |
| N#Cc1ccc(-c2csc(N3C(=O)OCC34CC4)n2)cc1 [Example 25, 4-[2-(5-oxo-6-oxa-4-azaspiro[2.4]hept-4-yl)-1,3-thiazol-4-yl]benzonitrile] | 219 to 221 | 21.6 |  |  |
| O=C1OCCN1c1nc(-c2ccc(Br)cc2)cs1 [Example 28, 3-[4-(4-Bromophenyl)-1,3-thiazol-2-yl]-1,3-oxazolidin-2-one] | 197 to 199 | 158 |  |  |
| CCCC1COC(=O)N1c1nc(-c2ccc(Br)cc2)cs1 (centres unmarked) [Example 29, 3-[4-(4-Bromophenyl)-1,3-thiazol-2-yl]-4-propyl-1,3-oxazolidin-2-one] | 156 to 157 | 88.8 |  |  |
| CCCCC1COC(=O)N1c1nc(-c2ccc(Br)cc2)cs1 (centres unmarked) [Example 30, 3-[4-(4-Bromophenyl)-1,3-thiazol-2-yl]-4-butyl-1,3-oxazolidin-2-one] | 153 to 155 |  | 100 |  |
| CC1CN(c2nc(-c3ccc(Br)cc3)cs2)C(=O)O1 (centres unmarked) [Example 31, 3-[4-(4-Bromophenyl)-1,3-thiazol-2-yl]-5-methyl-1,3-oxazolidin-2-one] | 191 to 193 | 68.8 |  |  |
| CCC1CN(c2nc(-c3ccc(Br)cc3)cs2)C(=O)O1 (centres unmarked) [Example 32, 3-[4-(4-Bromophenyl)-1,3-thiazol-2-yl]-5-ethyl-1,3-oxazolidin-2-one] | 141 to 142 | 407 |  |  |
| O=C1OCCCN1c1nc(-c2ccc(Br)cc2)cs1 [Example 33, 3-[4-(4-Bromophenyl)-1,3-thiazol-2-yl]-1,3-oxazinan-2-one] | 225 to 227 | 238 |  |  |
| CC1(C)COC(=O)N(c2nc(-c3ccc(Br)cc3)cs2)C1 [Example 39, 3-[4-(4-Bromophenyl)-1,3-thiazol-2-yl]-5,5-dimethyl-1,3-oxazinan-2-one] | 169 to 171 | 1370 |  |  |
| CC(C)C1COC(=O)N1c1nc(-c2ccc(C#N)cc2)cs1 (centres unmarked) [Example 43, 4-[2-(4-Isopropyl-2-oxo-1,3-oxazolidin-3-yl)-1,3-thiazol-4-yl]benzonitrile] | 126 to 128 | 21.9 |  |  |
| N#Cc1ccc(-c2csc(N3C(=O)OC[C@H]3Cc3ccccc3)n2)cc1 [Example 44, 4-{2-[(4R)-4-Benzyl-2-oxo-1,3-oxazolidin-3-yl]-1,3-thiazol-4-yl}benzonitrile] | 174 to 176 | 191 |  |  |
| N#Cc1ccc(-c2csc(N3C(=O)OC[C@H]3c3ccccc3)n2)cc1 [Example 45, 4-{2-[(4R)-2-Oxo-4-phenyl-1,3-oxazolidin-3-yl]-1,3-thiazol-4-yl}benzonitrile] | 243 to 245 | 166 |  |  |
| N#Cc1ccc(-c2csc(N3C(=O)OC[C@@H]3c3ccccc3)n2)cc1 [Example 46, 4-{2-[(4S)-2-Oxo-4-phenyl-1,3-oxazolidin-3-yl]-1,3-thiazol-4-yl}benzonitrile] | 242 to 244 | 194 |  |  |
| N#Cc1ccc(-c2csc(N3C(=O)OCC34CCCC4)n2)cc1 [Example 47, 4-[2-(2-Oxo-3-oxa-1-azaspiro[4.4]non-1-yl)-1,3-thiazol-4-yl]benzonitrile] | 196 to 198 | 45.4 |  |  |
| CC1(C)COC(=O)N1c1nc(-c2cccc(C#N)c2)cs1 [Example 52, 3-[2-(4,4-dimethyl-2-oxo-1,3-oxazolidin-3-yl)-1,3-thiazol-4-yl]benzonitrile] | 181 to 183 |  | 95 |  |
| CCC1(CC)COC(=O)N1c1nc(-c2ccc(C#N)cc2)c(F)s1 [Example 53, 4-[2-(4,4-Diethyl-2-oxo-1,3-oxazolidin-3-yl)-5-fluoro-1,3-thiazol-4-yl]benzonitrile] | 151 to 153 |  |  | 40 |
| N#Cc1ccc(-c2csc(-n3c(=O)oc4ccccc43)n2)cc1 [Example 54, 4-[2-(2-Oxo-1,3-benzoxazol-3(2H)-yl)-1,3-thiazol-4-yl]benzonitrile] | 244 to 245 |  | 50 |  |
| N#Cc1ccc(-c2nc(N3C(=O)OCC34CC4)sc2F)cc1 [Example 55, 4-[5-Fluoro-2-(5-oxo-6-oxa-4-azaspiro[2.4]hept-4-yl)-1,3-thiazol-4-yl]benzonitrile] | 222 to 224 | 41.9 |  |  |
| Cc1sc(N2C(=O)OCC2(C)C)nc1-c1ccc(Br)cc1 [Example 56, 3-[4-(4-Bromophenyl)-5-methyl-1,3-thiazol-2-yl]-4,4-dimethyl-1,3-oxazolidin-2-one] | 175 to 176.5 | 437 |  |  |
| Cc1sc(N2C(=O)OCC2(C)C)nc1-c1ccc(C#N)cc1 [Example 57, 4-[2-(4,4-Dimethyl-2-oxo-1,3-oxazolidin-3-yl)-5-methyl-1,3-thiazol-4-yl]benzonitrile] | 192.5 to 193 | 101 |  |  |
| CC1(C)COC(=O)N1c1nc(-c2sc(C#N)cc2Br)cs1 [Example 59, 4-Bromo-5-[2-(4,4-dimethyl-2-oxo-1,3-oxazolidin-3-yl)-1,3-thiazol-4-yl]thiophene-2-carbonitrile] | 230 to 234 | 99 |  |  |
| CC1(C)COC(=O)N1c1nc(-c2ccc(C#N)s2)cs1 [Example 60, 5-[2-(4,4-dimethyl-2-oxo-1,3-oxazolidin-3-yl)-1,3-thiazol-4-yl]thiophene-2-carbonitrile] | 250 to 251 | 43.5 |  |  |
| CC1(C)COC(=O)N1c1nc(-c2csc(C#N)c2)cs1 [Example 61, 4-[2-(4,4-Dimethyl-2-oxo-1,3-oxazolidin-3-yl)-1,3-thiazol-4-yl]thiophene-2-carbonitrile] | 249 to 251.5 | 37.8 |  |  |
| CC1OC(=O)N(c2nc(-c3ccc(C#N)cc3)cs2)C1(C)C (centres unmarked) [Example 62, 4-[2-(4,4,5-Trimethyl-2-oxo-1,3-oxazolidin-3-yl)-1,3-thiazol-4-yl]benzonitrile] | 166 to 167 | 1.8 |  |  |
| CC1(C)COC(=N)N1c1nc(-c2ccc(C#N)cc2)cs1 [Example 63, 4-[2-(2-imino-4,4-dimethyl-1,3-oxazolidin-3-yl)-1,3-thiazol-4-yl]benzonitrile] | 158 to 161 | 53.4 |  |  |
